The values below come from EP3417074B1, “ANALYTICAL METHODS AND ARRAYS FOR USE IN THE SAME” (SenzaGen AB, priority 2016, dated 2017).

Counter-ions that a name gives are not always drawn. Like-named read-outs stand apart in the source and are kept apart here.

For data set [1] the following is noted: cited from earlier work; for binary class (HP*): Table 1, based on [41] where available, HP 1-4=S, 5-6=NS, otherwise according to CLP.
Data set [2] relates to MUTZ-3 cells. In words: GARD random forest model for prediction of CLP categories (52 transcripts, Example A). Particulars: for predicted CLP: Suppl. Table 1, separate replicates in the test set; for GARD predicted CLP: Table 6, independent test set, majority voting across replicates.
The test system of data set [3] is MUTZ-3 cells. Description: GARD binary classification (SVM on GARD prediction signature, 200 transcripts). The note with it: for GARD binary prediction: Table 1, sensitizer if median calibrated SVM DV of replicates > 0; for SVM DV: Table 8, average SVM decision value derived from triplicates.
Text: The SVM model had been developed for binary classifications (sensitizer versus non-sensitizer).
Data set [4] relates to human skin. Particulars: cited from earlier work; for Human potency [41]: Table 6, test set.
In data set [5] the test system is MUTZ-3 cells. In words: Cytotoxicity / viability by flow cytometry (propidium iodide). The note with it: Table 1, 24 hours exposure. In general terms: A flow cytometer gives signals particle by particle.

`CCCCBr` [1-bromobutane]: the binary class result in data set [1] (Table 4) is given as “non-sens”. In data set [2], the “predicted CLP” value is “no cat” and the “GARD predicted CLP” value is “no cat”.

As for `O=[N+]([O-])c1ccc(F)c([N+](=O)[O-])c1` [2,4-Dinitrofluorobenzene], the “binary class (HP*)” value in data set [1] is recorded as “S”. For the same molecule, in data set [1] (Table 4), the binary class result was “sens”. For the same molecule, the GARD binary prediction result in data set [3] is “S”.

In the case of `O=[N+]([O-])c1ccc(Cl)c([N+](=O)[O-])c1` [2,4-dinitrochlorobenzene], the binary class result is “sens” in data set [1] (Table 2, benchmark chemicals) and “sens” in data set [1] (Table 4). Moreover, in data set [4], the HP is listed as 1. Moreover, in data set [4], the Human potency is recorded as 1. Besides, the “SVM DV” value in data set [3] is 6,31.

With `Nc1ccccc1O` [2-aminophenol], in data set [4], the HP is 2 and the Human potency is 2. In addition, in data set [3], the “SVM DV” value is 5,98.

`C=CC(=O)OCCO` [2-hydroxyethyl acrylate]: in data set [3], the “SVM DV” value is 8,87.

Take `Sc1nc2ccccc2s1` [2-mercaptobenzothiazole]: in data set [1] (Table 4), the binary class result was “sens”. Also, the HP in data set [4] (Table 4) is given as 3. The Human potency in data set [4] (Table 8) is 3. Also, the “SVM DV” value in data set [3] is 2,52.

Take `Cc1cccc(O)c1O` [3-Methylcatechol]: the “binary class (HP*)” value in data set [1] was “S”. Besides, the binary class entry in data set [1] (Table 4) is given as “sens”. In addition, the cytotox entry in data set [5] was “yes”. The GARD binary prediction result in data set [3] is “S”.

Consider `O=[N+]([O-])c1ccc(CBr)cc1` [4-nitrobenzylbromide], for which the binary class entry in data set [1] (Table 4) is “sens”.

`Nc1ccc(C(=O)O)cc1` [PABA]: the Human potency in data set [4] is given as 5. In addition, in data set [3], the “SVM DV” value is listed as -1,04.

On to `CC1(C)S[C@@H]2[C@H](NC(=O)Cc3ccccc3)C(=O)N2[C@H]1C(=O)O` [Penicillin G], for which, in data set [4] (Table 8), the Human potency is 3. Moreover, the “SVM DV” value in data set [3] was 1,06.

As to `CC(O)CO` (centres unmarked) [Propylene glycol], the Human potency in data set [4] (Table 8) is given as 5. In addition, the “SVM DV” value in data set [3] was -1,18.

Regarding `CCCCCCCC/C=C\CCCCCCCC(=O)OCCOCC(OCCO)C1OCC(OCCO)C1OCCO` (centres unmarked) [Tween 80], in data set [1] (Table 4), the binary class entry is reported as “non-sens”. In addition, in data set [4] (Table 4), the HP is 6. Besides, in data set [4] (Table 8), the Human potency is reported as 6. For the same molecule, the “SVM DV” value in data set [3] is -1,39.

With `CC(C)C1=CC2=CC[C@@H]3[C@](C)(CCC[C@@]3(C)C(=O)O)[C@H]2CC1` [abietic acid], the “binary class (HP*)” value in data set [1] is “S”. In data set [1] (Table 4), the binary class result is on record as “sens”. Also, the HP in data set [4] (Table 4) is listed as 3. In addition, the cytotox result in data set [5] was “no”. The GARD binary prediction entry in data set [3] is on record as “S”.

Turning to `CCCCC/C(=C/c1ccccc1)CO` [amylcinnamyl alcohol], the HP in data set [4] is 4. Moreover, the cytotox result in data set [5] is listed as “yes”. Moreover, in data set [3], the GARD binary prediction result is “S”.

For the molecule `O=Cc1ccccc1` [benzaldehyde], the “SVM DV” value in data set [3] was -2,13.

Consider `CCOC(=O)c1ccc(N)cc1` [benzocaine], for which the “binary class (HP*)” value in data set [1] is “S”. Besides, in data set [1] (Table 4), the binary class result is “sens”. Besides, the HP in data set [4] (Table 4) is given as 4. The cytotox entry in data set [5] is given as “no”. In data set [3] (sensitizing chemicals close to the cut-off defined by benchmark samples), the “binary classification according to the established GARD model” value is listed as “misclassified”.

In the case of `OCc1ccccc1` [benzyl alcohol], the binary class entry in data set [1] (Table 4) was “non-sens”. For the same molecule, the cytotox entry in data set [5] was “no”.

For `Clc1ccccc1` [chlorobenzene], in data set [4], the HP is 6 and the Human potency was 6. The “SVM DV” value in data set [3] is on record as -1,63.

For the molecule `O=CC=Cc1ccccc1` [cinnamaldehyde], in data set [4], the HP is 2.

As for `OCC=Cc1ccccc1` [cinnamyl alcohol], the binary class entry in data set [1] (Table 4) is reported as “sens”. Besides, in data set [4] (Table 4), the HP was 3. The Human potency in data set [4] (Table 8) is on record as 3. Further, the “SVM DV” value in data set [3] is 2,94.

With `O=C(O)CC(O)(CC(=O)O)C(=O)O` [citric acid], in data set [5], the cytotox result was “no”.

For `OCCNCCO` [diethanolamine], in data set [1] (Table 4), the binary class result is “sens”. Moreover, in data set [4], the HP is reported as 5. Besides, the cytotox entry in data set [5] was “no”.

Consider `CCOC(=O)/C=C\C(=O)OCC` [diethyl maleate], for which the binary class entry in data set [1] (Table 4) is recorded as “sens”. In data set [2], the “predicted CLP” value is 1A and the “GARD predicted CLP” value was 1A. In data set [2] (test set, majority votes), the “CLP category predicted by the random forest model” value is 1A. In addition, the human potency category in data set [4] (Basketter et al. [41]) is on record as 2. In addition, the HP in data set [4] (Table 4) was 2. Further, in data set [4], the “Human potency [41]” value is on record as 2.

On to `CCOC(=O)c1ccccc1C(=O)OCC` [diethyl phthalate], for which the binary class result in data set [1] (Table 4) is recorded as “non-sens”. Besides, in data set [2], the “predicted CLP” value is on record as “no cat” and the “GARD predicted CLP” value is on record as “no cat”. In addition, in data set [4], the “Human potency [41]” value is on record as 6, the HP is reported as 6 and the Human potency was 6. Besides, the “SVM DV” value in data set [3] is recorded as -2,15.

Take `O=c1c(-c2ccccc2)c1-c1ccccc1` [diphenylcyclopropenone]: the binary class entry in data set [1] (Table 4) is “sens”. The HP in data set [4] (Table 4) was 1.

For `NCCN` [ethylenediamine], the “SVM DV” value in data set [3] was 1,12.

In the case of `CC(C)=CCC/C(C)=C/CO` [geraniol], the “SVM DV” value in data set [3] is given as 1,76.

With `OCC(O)CO` [glycerol], the HP in data set [4] (Table 4) is given as 6. In data set [4] (Table 8), the Human potency was 6. The “SVM DV” value in data set [3] is reported as -2,05.

`O=CC=O` [glyoxal]: in data set [4], the HP is 2 and the Human potency is recorded as 2. The “SVM DV” value in data set [3] is 1,08.

In the case of `CCCCCC` [hexane], the binary class entry in data set [1] (Table 4) was “non-sens”. For the same molecule, the HP in data set [4] (Table 4) is recorded as 6.

As for `CCCCCCC(C=O)=Cc1ccccc1` [hexylcinnamic aldehyde], the binary class entry in data set [1] (Table 2, benchmark chemicals) is listed as “sens”; in data set [1] (Table 4), “sens”. In addition, the HP is given as 5 in data set [4] (Table 2, benchmark chemicals) and 5 in data set [4] (Table 4). The Human potency in data set [4] (Table 8) was 5. For the same molecule, the “SVM DV” value in data set [3] was 1,24.

On to `Oc1ccc(O)cc1` [hydroquinone], for which, in data set [1] (Table 4), the binary class result is given as “sens”. Besides, in data set [4] (Table 4), the HP is recorded as 3.

For the molecule `CC(CC=O)CCCC(C)(C)O` (centres unmarked) [hydroxycitronellal], the binary class entry in data set [1] (Table 4) was “sens”. Further, the HP in data set [4] (Table 4) was 4.

On to `CC=Cc1ccc(O)c(OC)c1` [isoeugenol], for which, in data set [1] (Table 4), the binary class result is “sens”. The HP in data set [4] (Table 4) is recorded as 2. Further, in data set [4] (Table 8), the Human potency was 2. The “SVM DV” value in data set [3] is listed as 1,91.

In the case of `CC(C)O` [isopropanol], the binary class entry in data set [1] (Table 4) was “non-sens”. Also, the HP in data set [4] (Table 4) is 5. For the same molecule, the Human potency in data set [4] (Table 8) was 5. In addition, the “SVM DV” value in data set [3] was -1,37.

Take `CCCCCCCCCCCCCC(=O)OC(C)C` [isopropyl myristate]: the binary class result in data set [1] (Table 4) is reported as “sens”. The HP in data set [4] (Table 4) was 5. Moreover, the cytotox result in data set [5] is “no”.

As for `CC(O)C(=O)O` (centres unmarked) [lactic acid], in data set [4], the HP is recorded as 6 and the Human potency is 6. The “SVM DV” value in data set [3] is recorded as -2,38.

Take `CCCCCCCCCCCCOC(=O)c1cc(O)c(O)c(O)c1` [lauryl gallate]: the binary class entry in data set [1] (Table 4) is recorded as “sens”. Besides, the HP in data set [4] (Table 4) was 2.

Regarding `COC(=O)c1ccccc1O` [methyl salicylate], the binary class entry in data set [1] (Table 4) is “non-sens”. Also, in data set [4] (Table 4), the HP was 5. Moreover, the Human potency in data set [4] (Table 8) is 5. The “SVM DV” value in data set [3] is -1,53.

Turning to `N#CCCC(Br)(C#N)CBr` (centres unmarked) [methyldibromo glutaronitrile], the binary class entry in data set [1] (Table 4) is given as “sens”. For the same molecule, the HP in data set [4] (Table 4) was 2.

With `CCCCCCCC(=O)O` [octanoic acid], the binary class entry in data set [1] (Table 4) is on record as “non-sens”. The Human potency in data set [4] (Table 8) is 6. Besides, the HP in data set [4] is 6. Further, the “SVM DV” value in data set [3] is -1,19.

As to `O=C(O)c1ccc(O)cc1` [p-hydroxybenzoic acid], the binary class result in data set [1] (Table 4) was “non-sens”.

`Nc1ccc(N)cc1` [p-phenylenediamine]: the binary class result is “sens” in data set [1] (Table 2, benchmark chemicals) and “sens” in data set [1] (Table 4). Also, the Human potency in data set [4] (Table 8) is reported as 1. In addition, the HP in data set [4] is listed as 1. The “SVM DV” value in data set [3] is reported as 5,32.

Take `Oc1c(Cl)c(Cl)c(Cl)c(Cl)c1Cl` [pentachlorophenol]: in data set [1] (Table 4), the binary class result is reported as “sens”. Also, the HP in data set [4] was 5. Further, the cytotox entry in data set [5] is “no”.

In the case of `O=CCc1ccccc1` [phenyl acetaldehyde], in data set [1] (Table 4), the binary class entry is given as “sens”.

With `O=C(Oc1ccccc1)c1ccccc1` [phenyl benzoate], in data set [1] (Table 4), the binary class result was “sens”. Also, the HP in data set [4] (Table 4) was 3.

`[K+].[K+].[O]=[Cr](=[O])([O-])[O][Cr](=[O])(=[O])[O-]` [potassium dichromate]: in data set [1] (Table 4), the binary class entry is “sens”. Further, in data set [4] (Table 4), the HP is recorded as 1. For the same molecule, the Human potency in data set [4] (Table 8) is given as 1. Further, the “SVM DV” value in data set [3] is given as 8,45.

As for `Oc1cccc(O)c1` [resorcinol], the HP is 4 in data set [4] (Table 2, benchmark chemicals) and 4 in data set [4] (Table 4). Further, in data set [4] (Table 8), the Human potency is given as 4. In data set [3], the “SVM DV” value is recorded as 1,03.

As to `O=C(O)c1ccccc1O` [salicylic acid], in data set [4], the HP was 6 and the Human potency is 6. The “SVM DV” value in data set [3] was -1,41.

Take `O=C(O)C(O)C(O)C(=O)O` (centres unmarked) [tartaric acid]: in data set [5], the cytotox result was “no”.

For the molecule `CN(C)C(=S)SSC(=S)N(C)C` [tetramethylthiuram disulfide], the HP in data set [4] is recorded as 3.

Take chloroanilin: in data set [1] (Table 4), the binary class result is “sens”.

xylene: the HP in data set [4] (Table 4) is 6. The “Human potency [41]” value in data set [4] is listed as 6.
